The assay has as its system androgen receptor (AR). Description: AR ELISA assay (androgen receptor degradation). It is filed as cell-based. The conditions noted are these: LNCaP and/or VCaP cells, 5 hours drug treatment; for AR Dmax: % degraded. How it is done: 5. AR ELISA Assay Protocol
Compounds were evaluated in this assay in LNCaP and/or VCaP cells utilizing similar protocols. The protocols used with VCaP cells are described below. The androgen receptor ELISA assay was performed using PathScan AR Sandwich ELISA (Cell Signaling Catalog #12850) according to the following assay steps:
VCaP cells were seeded at 40,000 cells/well at a volume of 100 µL/well in VCaP assay medium [Phenol red free RPMI (Gibco Cat #11835-030); 5% Charcoal Stripped (Dextran treated) FBS (Omega Scientific, Cat #FB-04); 1% penstrep (Life Technologies, Gibco Cat #: 10378-016)] in Corning 3904 plates. The cells were incubated for a minimum of 3 days. Cells were dosed with PROTACs diluted in 0.01% DMSO and the drug treatment was allowed for 5 hours.
AR ELISA (Cell Signaling) was performed as follows. 1×Cell Signaling Cell lysis buffer was made (Catalogue #9803; comes with the kit). Media from the treated wells is aspirated, and 100 μL 1×cell lysis buffer/well is added. The cells were placed on a shaker for 10 minutes at 4° C. Twenty microliters of lysate was transferred to 100 μl of Diluent in ELISA plate ([…]-0.075 μg/ml). The lysate-diluent mixture was shaken for 30 minutes at 37° C. Allow mouse AR antibody, anti-mouse antibody, TMB, and STOP solution to come to room temperature. The 1×ELISA buffer included in kit was made and loaded in the reservoir. Media from the plates was discarded, the ELISA plate tapped hard on paper towel, and washed 4×200 μl ELISA wash buffer using a plate washer.
One-hundred (100) μL/well of mouse AR detection Ab was added; the plates were covered and shaken at 37° C. for 1 hour; media was discarded from the plates, the plates were tapped on a paper towel, washed 4× with 200 μL ELISA wash buffer with a plate washer.
One-hundred (100) μL/well of anti-mouse—HRP conjugated Ab (comes with the kit) was added; the plates were covered and shaken at 37° C. for 30 minutes; the TMB reagent was allowed to come to room temperature; the media was discard from the plate, the plates were tapped on paper towel, washed 4× with 200 μL of ELISA wash buffer; the plates were tapped the plates on paper towel. One-hundred (100) μL of TMB was added and the plates shaken for 2 minutes—while watching for color development. One-hundred (100) μL Stop solution was added when light blue color developed. Plates were shaken and read at 450 nm.
(In general: ELISA stands for enzyme-linked immunosorbent assay.)

This note sets out measurements from patent US20250313547A1, “CEREBLON LIGANDS AND BIFUNCTIONAL COMPOUNDS COMPRISING THE SAME” (Arvinas Operations, Inc., priority 2017, published 2025).

Usually DC50 stands for the midpoint of the concentration-degradation curve.

Regarding `CC1(C)[C@H](NC(=O)c2ccc(N3CCN(CCCCCOc4ccc(C(=O)NC5CCC(=O)NC5=O)nc4)CC3)nc2)C(C)(C)[C@H]1Oc1ccc(C#N)c(Cl)c1` (mixture of isomers) [PROTAC-27, rac-5-((5-(4-(5-(((1r,3r)-3-(3-chloro-4-cyanophenoxy)-2,2,4,4-tetramethylcyclobutyl)carbamoyl)pyridin-2-yl)piperazin-1-yl)pentyl)oxy)-N-(2,6-dioxopiperidin-3-yl)picolinamide], the “AR Dmax” value is given as “B (50 < B <= 75)” and the DC50 was in the range of 1 to 10 nM.

As to `CC1Nc2c(OCCCCCN3CCN(c4ccc(C(=O)N[C@H]5C(C)(C)[C@H](Oc6ccc(C#N)c(Cl)c6)C5(C)C)cn4)CC3)cccc2C(=O)N1C1CCC(=O)NC1=O` (mixture of isomers) [PROTAC-28, rac-N-((1r,3r)-3-(3-chloro-4-cyanophenoxy)-2,2,4,4-tetramethylcyclobutyl)-6-(4-(5-((3-(2,6-dioxopiperidin-3-yl)-2-methyl-4-oxo-1,2,3,4-tetrahydroquinazolin-8-yl)oxy)pentyl)piperazin-1-yl)nicotinamide], the “AR Dmax” value is reported as “C (C <= 50)” and the DC50 was no less than 100 nM.

For `CCN(C(=O)c1ccc(OCCCCCN2CCN(c3ccc(C(=O)N[C@H]4C(C)(C)[C@H](Oc5ccc(C#N)c(Cl)c5)C4(C)C)cn3)CC2)cc1)C1CCC(=O)NC1=O` (mixture of isomers) [PROTAC-48, rac-N-((1r,3r)-3-(3-chloro-4-cyanophenoxy)-2,2,4,4-tetramethylcyclobutyl)-6-(4-(5-(4-((2,6-dioxopiperidin-3-yl)(ethyl)carbamoyl)phenoxy)pentyl)piperazin-1-yl)nicotinamide], the “AR Dmax” value is “C (C <= 50)” and the DC50 was no less than 100 nM.

Consider `CN(C(=O)c1ccc(OCCCCCN2CCN(c3ccc(C(=O)N[C@H]4C(C)(C)[C@H](Oc5ccc(C#N)c(Cl)c5)C4(C)C)cn3)CC2)cc1)C1CCC(=O)NC1=O` (mixture of isomers) [PROTAC-49, rac-N-((1r,3r)-3-(3-chloro-4-cyanophenoxy)-2,2,4,4-tetramethylcyclobutyl)-6-(4-(5-(4-((2,6-dioxopiperidin-3-yl)(methyl)carbamoyl)phenoxy)pentyl)piperazin-1-yl)nicotinamide], for which the “AR Dmax” value is given as “C (C <= 50)” and the DC50 is no less than 100 nM.

For the compound `CC1(C)[C@H](NC(=O)c2ccc(N3CCN(CCCCOc4ccc(C(=O)NC5CCC(=O)NC5=O)nc4)CC3)nc2)C(C)(C)[C@H]1Oc1ccc(C#N)c(Cl)c1` (mixture of isomers) [PROTAC-51, rac-5-(4-(4-(5-(((1r,3r)-3-(3-chloro-4-cyanophenoxy)-2,2,4,4-tetramethylcyclobutyl)carbamoyl)pyridin-2-yl)piperazin-1-yl)butoxy)-N-(2,6-dioxopiperidin-3-yl)picolinamide], the “AR Dmax” value is listed as “C (C <= 50)” and the DC50 is less than 1 nM.

For `CC1(C)[C@H](NC(=O)c2ccc(N3CCC(CCN4CCN(c5ccc(C(=O)NC6CCC(=O)NC6=O)nc5)CC4)CC3)nc2)C(C)(C)[C@H]1Oc1ccc(C#N)c(Cl)c1` (mixture of isomers) [PROTAC-52, rac-5-(4-(2-(1-(5-(((1r,3r)-3-(3-chloro-4-cyanophenoxy)-2,2,4,4-tetramethylcyclobutyl)carbamoyl)pyridin-2-yl)piperidin-4-yl)ethyl)piperazin-1-yl)-N-(2,6-dioxopiperidin-3-yl)picolinamide], the “AR Dmax” value was “B (50 < B <= 75)” and the DC50 was less than 1 nM.

Turning to `CC1(C)[C@H](NC(=O)c2ccc(N3CCC(CN4CCN(c5ccc(C(=O)NC6CCC(=O)NC6=O)nc5)CC4)CC3)nn2)C(C)(C)[C@H]1Oc1ccc(C#N)c(Cl)c1` (mixture of isomers) [PROTAC-54, rac-N-((1r,3r)-3-(3-chloro-4-cyanophenoxy)-2,2,4,4-tetramethylcyclobutyl)-6-(4-((4-(6-((2,6-dioxopiperidin-3-yl)carbamoyl)pyridin-3-yl)piperazin-1-yl)methyl)piperidin-1-yl)pyridazine-3-carboxamide], the “AR Dmax” value is listed as “B (50 < B <= 75)” and the 50% degradation concentration (DC50) was 1 to 10 nM.

In the case of `CC1(C)[C@H](NC(=O)c2ccc(N3CCC(CN4CCN(c5ccc(C(=O)NC6CCC(=O)NC6=O)nc5)CC4)CC3)cc2)C(C)(C)[C@H]1Oc1ccc(C#N)c(Cl)c1` (mixture of isomers) [PROTAC-55, rac-5-(4-((1-(4-(((1r,3r)-3-(3-chloro-4-cyanophenoxy)-2,2,4,4-tetramethylcyclobutyl)carbamoyl)phenyl)piperidin-4-yl)methyl)piperazin-1-yl)-N-(2,6-dioxopiperidin-3-yl)picolinamide], the “AR Dmax” value is recorded as “B (50 < B <= 75)” and the half-maximal degradation concentration (DC50) is less than 1 nM.

On to `CC1(C)[C@H](NC(=O)c2cnc(N3CCC(CN4CCN(c5ccc(C(=O)NC6CCC(=O)NC6=O)nc5)CC4)CC3)cn2)C(C)(C)[C@H]1Oc1ccc(C#N)c(Cl)c1` (mixture of isomers) [PROTAC-56, rac-N-((1r,3r)-3-(3-chloro-4-cyanophenoxy)-2,2,4,4-tetramethylcyclobutyl)-5-(4-((4-(6-((2,6-dioxopiperidin-3-yl)carbamoyl)pyridin-3-yl)piperazin-1-yl)methyl)piperidin-1-yl)pyrazine-2-carboxamide], for which the “AR Dmax” value is on record as “B (50 < B <= 75)” and the DC50 was 1 to 10 nM.

Take `CC1(C)[C@H](NC(=O)c2ccc(N3CCN(CCCOc4cnn(C5CCC(=O)NC5=O)c(=O)c4)CC3)nc2)C(C)(C)[C@H]1Oc1ccc(C#N)c(Cl)c1` (mixture of isomers) [PROTAC-60, rac-N-((1r,3r)-3-(3-chloro-4-cyanophenoxy)-2,2,4,4-tetramethylcyclobutyl)-6-(4-(3-((1-(2,6-dioxopiperidin-3-yl)-6-oxo-1,6-dihydropyridazin-4-yl)oxy)propyl)piperazin-1-yl)nicotinamide]: the “AR Dmax” value was “C (C <= 50)” and the 50% degradation concentration (DC50) is no less than 100 nM.

On to `CC1(C)[C@H](NC(=O)c2ccc(N3CCC(CN4CCN(c5cnn(C6CCC(=O)NC6=O)c(=O)c5)CC4)CC3)cc2)C(C)(C)[C@H]1Oc1ccc(C#N)c(Cl)c1` (mixture of isomers) [PROTAC-62, rac-N-((1r,3r)-3-(3-chloro-4-cyanophenoxy)-2,2,4,4-tetramethylcyclobutyl)-4-(4-((4-(1-(2,6-dioxopiperidin-3-yl)-6-oxo-1,6-dihydropyridazin-4-yl)piperazin-1-yl)methyl)piperidin-1-yl)benzamide], for which the “AR Dmax” value is on record as “B (50 < B <= 75)” and the DC50 is less than 1 nM.

For `CC1(C)[C@H](NC(=O)c2ccc(N3CCC(CCN4CCN(c5cnn(C6CCC(=O)NC6=O)c(=O)c5)CC4)CC3)cc2)C(C)(C)[C@H]1Oc1ccc(C#N)c(Cl)c1` (mixture of isomers) [PROTAC-63, rac-N-((1r,3r)-3-(3-chloro-4-cyanophenoxy)-2,2,4,4-tetramethylcyclobutyl)-4-(4-(2-(4-(1-(2,6-dioxopiperidin-3-yl)-6-oxo-1,6-dihydropyridazin-4-yl)piperazin-1-yl)ethyl)piperidin-1-yl)benzamide], the “AR Dmax” value is recorded as “A (A > 75)” and the DC50 was less than 1 nM.

In the case of `Cn1c(-c2cccc(OCCCCCN3CCN(c4ccc(C(=O)N[C@H]5C(C)(C)[C@H](Oc6ccc(C#N)c(Cl)c6)C5(C)C)cc4)CC3)c2)nn(C2CCC(=O)NC2=O)c1=O` (mixture of isomers) [PROTAC-67, rac-N-((1r,3r)-3-(3-chloro-4-cyanophenoxy)-2,2,4,4-tetramethylcyclobutyl)-4-(4-(5-(3-(1-(2,6-dioxopiperidin-3-yl)-4-methyl-5-oxo-4,5-dihydro-1H-1,2,4-triazol-3-yl)phenoxy)pentyl)piperazin-1-yl)benzamide], the “AR Dmax” value is “C (C <= 50)” and the 50% degradation concentration (DC50) is 1 to 10 nM.

For the compound `Cn1c(-c2cccc(N3CCN(CC4CCN(c5ccc(C(=O)N[C@H]6C(C)(C)[C@H](Oc7ccc(C#N)c(Cl)c7)C6(C)C)cc5)CC4)CC3)c2)nn(C2CCC(=O)NC2=O)c1=O` (mixture of isomers) [PROTAC-68, rac-N-((1r,3r)-3-(3-chloro-4-cyanophenoxy)-2,2,4,4-tetramethylcyclobutyl)-4-(4-((4-(3-(1-(2,6-dioxopiperidin-3-yl)-4-methyl-5-oxo-4,5-dihydro-1H-1,2,4-triazol-3-yl)phenyl)piperazin-1-yl)methyl)piperidin-1-yl)benzamide], the “AR Dmax” value is listed as “A (A > 75)” and the DC50 is less than 1 nM.

Consider `Cn1c(-c2ccc(OCCCCCN3CCN(c4ccc(C(=O)N[C@H]5C(C)(C)[C@H](Oc6ccc(C#N)c(Cl)c6)C5(C)C)cc4)CC3)cc2)nn(C2CCC(=O)NC2=O)c1=O` (mixture of isomers) [PROTAC-69, rac-N-((1r,3r)-3-(3-chloro-4-cyanophenoxy)-2,2,4,4-tetramethylcyclobutyl)-4-(4-(5-(4-(1-(2,6-dioxopiperidin-3-yl)-4-methyl-5-oxo-4,5-dihydro-1H-1,2,4-triazol-3-yl)phenoxy)pentyl)piperazin-1-yl)benzamide], for which the “AR Dmax” value is recorded as “B (50 < B <= 75)” and the half-maximal degradation concentration (DC50) is less than 1 nM.
